Series [1] relates to promastigote form of L. amazonensis. On the set-up: method as in PMID 22970332. To be noted: promastigotes; cited from earlier work.
Series [2] deals with promastigotes of Leishmania amazonensis (MHOM/BR/77/LTB0016). Kind of series: Leishmanicidal capacity assay (Alamar Blue). Format: cell-based. To be noted: promastigote form; for IC50: Leishmania amazonensis. The protocol:
(§1) Bioassay-guided fractionation of the crude extract yielded six dolabellanes 1–6. Their in vitro antiprotozoal activity was evaluated applying serial dilutions of the compounds, and IC50 were calculated using the Alamar Blue reagent reaction.
(§2) The activity of the crude extract, different subfractions and isolated compounds were evaluated against promastigotes of Leishmania amazonensis (MHOM/BR/77/LTB0016) and epimastigotes Trypanosoma cruzi (Y strain). Cytotoxicity assay of the active compounds was tested against the murine macrophage J774.A1 cell line (ATCC # TIB-67).
Logarithmic phase cultures of Leishmania amazonensis were used for experimental purposes, and the in vitro susceptibility assay was performed in sterilized 96-well plates. 10^6/well parasites were added to wells containing different concentration of the drug to be tested. Percentages of inhibition, 50% inhibitory concentrations (IC50) for active compounds were calculated by linear regression analysis using the Alamar Blue method.

Series [3] relates to epimastigotes Trypanosoma cruzi (Y strain). The series can be described thus: Trypanocidal capacity assay (Alamar Blue). To be noted: epimastigote form; for IC50: 96 h. Format: cell-based. The procedure: as §1, §2
The activity was evaluated in vitro against epimastigote stage of Trypanosoma cruzi. Different concentrations of fractions and compounds were incubated in 96 wells plate for 96 h with a density of 10^5 parasite/well. 10% of Alamar blue was added to each well and the IC50 was calculated. All assays have been realized in triplicate.

The nature of series [4]: Cytotoxicity assay (Alamar Blue). The series is classed as cell-based. To be noted: mouse, J774.A1 macrophage cell line (ATCC TIB-67), murine macrophage J774.A1. The procedure: The activity of the crude extract, different subfractions and isolated compounds were evaluated against promastigotes of Leishmania amazonensis (MHOM/BR/77/LTB0016) and epimastigotes Trypanosoma cruzi (Y strain). Cytotoxicity assay of the active compounds was tested against the murine macrophage J774.A1 cell line (ATCC # TIB-67). […]

Results on 9 molecules are retold here after publication PMC6471066, “Spiralyde A, an Antikinetoplastid Dolabellane from the Brown Alga Dictyota spiralis” (Marine Drugs, 2019).

Take `C[C@H]1/C=C/[C@@]2(C)CC[C@@H](C(C)(C)O)[C@@H]2[C@@H](O)C[C@](C)(O)/C=C/C1` [dolabelladienetriol (9), dolabelladienetriol]: the IC50 in series [1] was 44 µM.
Turning to `C=C(C)C1CC(=O)C2(C)CC=C(C)CCC=C(C)CCC12` [compound 6, (1R,3Z,7E,11S,12S)-14-Oxo-3,7,18-dolabellatriene], the IC50 in series [2] and in series [3] (Trypanosoma cruzi) was > 100 µM each time.
For the molecule `CCCCCCCCCCCCCCCCOP(=O)([O-])OCC[N+](C)(C)C` [Miltefosine, reference compound], half-maximal cytotoxicity in series [4] (CC50 at 24 h) was put at 72.2 ± 3.06 µM.
Turning to `C=C(C)[C@H]1CC[C@]2(C)C[C@@H]3O[C@@]3(C)CC/C=C(\C)CC[C@@H]12` [compound 2, (1R,3S,4S,7E,11S,12S)-3,4-Epoxy-7,18-dolabelladiene], the midpoint of cytotoxicity in series [4], the CC50 at 24 h, lay at 69.98 ± 0.14 µM. Also, in series [2], it took 36.8 ± 5.2 µM to reach half-maximal inhibition (IC50) and the “antikinetoplastid activity against Leishmania amazonensis (in words)” value is recorded as “moderate activity”. The molecule further came in with an IC50 in series [3] (Trypanosoma cruzi) of 35.3 ± 4.09 µM. Besides, the “antikinetoplastid activity against Trypanosoma cruzi (in words)” value in series [3] was “moderate activity”.
Consider `C=C(C)[C@H]1C[C@H](O)[C@]2(C)C[C@@H]3O[C@@]3(C)CC/C=C(\C)CC[C@@H]12` [compound 3, (1R,3S,4S,7E,11S,12S,14S)-3,4-Epoxy-14-hydroxy-7,18-dolabelladiene], for which, in series [2], the IC50 was > 100 µM and the “antikinetoplastid activity against Leishmania amazonensis (in words)” value is “inactive”. The IC50 in series [3] (Trypanosoma cruzi) is > 100 µM. Moreover, the “antikinetoplastid activity against Trypanosoma cruzi (in words)” value in series [3] was “inactive”.
Consider `O=C(Cn1ccnc1[N+](=O)[O-])NCc1ccccc1` [Benznidazole, reference compound], for which, in series [4], the CC50 at 24 h worked out at 400 ± 4 µM. Also, the results for the IC50 in series [3] (Trypanosoma cruzi) and in series [3] were 6.95 µM and 6.94 ± 1.94 µM, respectively.
For the molecule `C=C(C)[C@H]1CC(=O)[C@]2(C)C/C=C(\C)CC/C=C(\C)CC[C@@H]12` [compound 5, (1R,3E,7E,11S,12S)-14-Oxo-3,7,18-dolabellatriene], the IC50 in series [2] and in series [3] (Trypanosoma cruzi) was > 100 µM in each case.
On to `C=C(C)[C@H]1CC(=O)[C@]2(C)C[C@@H]3O[C@@]3(C)CC/C=C(\C)CC[C@@H]12` [compound 4, (1R,3S,4S,7E,11S,12S)-3,4-Epoxy-14-oxo-7,18-dolabelladiene], for which, in series [2], the IC50 is > 100 µM and the “antikinetoplastid activity against Leishmania amazonensis (in words)” value was “inactive”. Also, the IC50 in series [3] (Trypanosoma cruzi) was > 100 µM. Moreover, the “antikinetoplastid activity against Trypanosoma cruzi (in words)” value in series [3] was “inactive”.
On to `C=C(C)C1CCC2(C)CC=C(C)CCC=C(C=O)C(O)CC12` (stereo not shown) [Spiralyde A (1), Spiralyde A], for which the CC50 at 24 h in series [4] was found to be 23.4 ± 5.62 µM. For the same molecule, the IC50 in series [2] worked out at 15.5 ± 0.26 µM; in series [3] (Trypanosoma cruzi) it was 5.62 ± 2.48 µM.
